In one series the test system is Renilla luciferase 547. The series can be described thus: Substrate specificity of various luciferases: Renilla luciferase 547. It is filed as biochemical. The conditions noted are these: relative to coelenterazine = 100. As for the experimental part:
(§1) The preparation of various luciferases and the determination of their luminescence activities were carried out in accordance with the methods as previously reported. The catalytic 19 kDa domain of Oplophorus luciferase was produced by the method described in Inouye S. & Sasaki S. (2007) Protein Express. Purif. 56, 261-268, Gaussia luciferase by the method described in Inouye S & Sahara Y. (2008) Biochem. Biophys. Res. Commun. 368, 600-605, Renilla luciferase and Renilla luciferase 547 by the method described in Inouye S. et al. (2013) Protein Express. Purif. 88, 150-156, and aequorin by the method described in Inouye S et al. (2010) Anal. Biochem. 407, 247-252, respectively, and used.

In series [1] the target is T1, nanoKAZ (mutated catalytic 19 kDa domain of Oplophorus luciferase) (Oplophorus gracilirostris, UniProt Q9GV45, A31E/A60N/A81I/F95D/I117V/K70R/L54V/L99Q/M102K/N193R/P142E/Q151K/Q38R/Q45L/V71I/Y165I).
T1 construct: secretory signal peptide of Gaussia luciferase (GLsp) (N, cleaved yes); made in house; host or cells: CHO-K1 transiently transfected with pcDNA3-GLsp-nanoKAZ; unpurified culture medium used as the enzyme solution
The series can be described thus: Luminescence activity of secreted codon-optimized nanoKAZ domain protein with coelenterazine analogs as substrates. It counts as biochemical. As for the experimental part: The Chinese hamster ovary-derived cell line CHO-K1 was cultured in Ham's F-12 medium (manufactured by Wako Pure Chemical Industries, Ltd.) containing 10% (v/v) calf fetal serum (manufactured by Biowest Inc.), and cultured in DMEM (manufactured by Wako Pure Chemical Industries, Ltd.) containing 10% (v/v) calf fetal serum (manufactured by Biowest Inc.). The respective cells were seeded in a 6-well culture plate (n=2) with 1×10^5 cells/well/2 mL medium, and cultured in an incubator at 37° C. in 5% CO2, respectively. After 24 hours, the purified pcDNA3-GLsp-nanoKAZ plasmid was transfected into CHO-K1 cells using a FuGene HD Transfection Kit (manufactured by Promega Corp.), which was used in the subsequent experiment. Specifically, 1 μg of the pcDNA3-GLsp-nanoKAZ expression vector and 3 μL of FuGene HD were added to 100 μL of medium, which was allowed to stand at room temperature for 15 minutes. Then 100 μL of the DNA-FuGene complex solution was added to the cells in the 6 wells. After incubation for 48 hours, the culture medium was recovered and used as the secreted nanoKAZ enzyme solution for assay.
The enzyme solution, 5 μL, for assay obtained in EXAMPLE 4 (2) was added to 100 pt of 50 mM Tris-HCl (pH 7.6)-10 mM EDTA (Wako Pure Chemical Industries) containing 1 μg each of various coelenterazine analogs to initiate the luminescence reaction. The luminescence activity was determined by a luminometer (AB2200, manufactured by Atto Company) for 60 seconds and expressed by the maximum luminescence intensity (Imax) and the relative light units (du) of the lumimescence intensity integrated for 60 seconds.
The coelenterazine analogs used for substrate specificity analysis except for the analog described in EXAMPLE 1 were synthesized by the methods as described in the journals below, respectively. Specifically, bis-coelenterazine was synthesized by the method described in Nakamura et al. (1997) Tetrahedron Lett. 38: 6405-6406; Furimazine (Compound No. 3939 referred to in the journal) and C6d-coelenterazine (Compound No. 3840 referred to in the journal) by the method described in Hall et al. (2012) ACS Chem. Biol. […]; and the C2-coelenterazine analogs by the method described in Inouye et al (2010) Anal. Biochem. 407: 247-252. The enzyme solution of the culture medium in which nanoKAZ was secreted by the method as described in EXAMPLE 4 (2) was used for determining the luminescence activity with coelenterazine or its analogs. […] As a result, the luminescence substrates which can markedly improve the luminescence intensity and the amount of the integrated luminescence intensity to compare with furimazine are bis-coelenterazine and C6d-f-coelenterazine, showing a continuous luminescence without a decay of the luminescence intensity.

A short description of series [2]: Stability of coelenterazine analogs in aqueous solution (HPLC). To be noted: 30 mM Tris-HCl (pH 7.6). It is filed as physicochemical. As for the experimental part: The stability of coelenterazine analogs in an aqueous solution was examined by dissolving 10 μg of coelenterazine analogs in 0.5 mL of 30 mM Tris-HCl (pH 7.6), allowing the solution to stand at 37° C. for 22 hours, and then the degradation of coelenterazine analogs was determined by HPLC analysis. The HPLC analysis was performed by the modified method as described in Inouye S. et al. (2013) Protein Express. Purif. 88, 150-156.

In series [3] the target is T2, Catalytic 19 kDa domain of Oplophorus luciferase (Oplophorus gracilirostris, UniProt Q9GV45).
T2 construct: The catalytic 19 kDa domain of Oplophorus luciferase was produced by the method described in; made in house
The series can be described thus: Substrate specificity of various luciferases: catalytic 19 kDa domain of Oplophorus luciferase. It is filed as biochemical, Oplophorus grachlorostris. To be noted: relative to coelenterazine = 100. As for the experimental part:
as §1

For another series, the system named is Gaussia luciferase. The series can be described thus: Substrate specificity of various luciferases: Gaussia luciferase. It is filed as biochemical. The conditions noted are these: relative to coelenterazine = 100. As to the method:
as §1

Another series addresses T3, Renilla luciferase (Renilla reniformis, UniProt P27652).
T3 construct: made in house
T3 sequence (P27652 1-311): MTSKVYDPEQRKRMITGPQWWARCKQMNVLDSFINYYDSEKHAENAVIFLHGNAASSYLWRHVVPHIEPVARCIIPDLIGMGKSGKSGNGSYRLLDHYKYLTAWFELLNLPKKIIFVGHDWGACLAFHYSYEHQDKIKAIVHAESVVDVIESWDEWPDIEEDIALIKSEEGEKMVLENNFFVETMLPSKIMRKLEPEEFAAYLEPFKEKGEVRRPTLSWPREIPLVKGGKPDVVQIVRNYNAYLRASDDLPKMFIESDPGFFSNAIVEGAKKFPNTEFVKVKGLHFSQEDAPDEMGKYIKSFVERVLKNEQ
The series can be described thus: Substrate specificity of various luciferases: Renilla luciferase. It is filed as biochemical. To be noted: relative to coelenterazine = 100. As for the experimental part: as §1

Another series has as its target T4, Aequorin (Aequorea victoria, UniProt P07164).
T4 construct: made in house
It counts as biochemical, jellyfish. The conditions noted are these: relative to coelenterazine = 100. As for the experimental part: as §1

T1 sequence (Q9GV45 other isoform, or with tags, fused parts or gaps with the stated changes): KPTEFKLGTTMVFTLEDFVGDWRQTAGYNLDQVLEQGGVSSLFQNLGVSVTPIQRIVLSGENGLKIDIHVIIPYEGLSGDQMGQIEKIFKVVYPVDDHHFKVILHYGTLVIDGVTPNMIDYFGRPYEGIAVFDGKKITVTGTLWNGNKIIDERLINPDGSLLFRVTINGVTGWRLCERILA
T2 sequence (Q9GV45 28-196): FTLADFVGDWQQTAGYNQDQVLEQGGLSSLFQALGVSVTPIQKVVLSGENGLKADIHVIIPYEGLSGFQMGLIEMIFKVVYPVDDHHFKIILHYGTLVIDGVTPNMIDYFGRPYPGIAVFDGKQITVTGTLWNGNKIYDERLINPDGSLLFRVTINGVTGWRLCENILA
T4 sequence (P07164 8-196): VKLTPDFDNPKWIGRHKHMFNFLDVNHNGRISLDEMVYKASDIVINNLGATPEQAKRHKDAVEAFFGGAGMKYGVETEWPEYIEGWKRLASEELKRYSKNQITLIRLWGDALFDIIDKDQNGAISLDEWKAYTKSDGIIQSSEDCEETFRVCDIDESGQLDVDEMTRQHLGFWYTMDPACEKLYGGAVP

On to bis-coelenterazine, for which the “Maximum Luminescence Intensity (Imax, %)” value in the series on Renilla luciferase 547 amounted to 0.07%; in series [3], 108%; with Gaussia luciferase, 0%; on Renilla luciferase it was 0.04%; at Aequorin it was 0.01%. For the same substance, the “Relative Amount of Integrated Luminescence Intensity (1 min, %)” value is given as “(0.08) %” in the series with Renilla luciferase 547; “(102) %” in series [3]; “(0) %” with Gaussia luciferase; “(0.03) %” on Renilla luciferase; “(0.01) %” at Aequorin. For the same substance, the “Luminescence pattern (decay)” value in series [1] (FIG. 3, recombinant nanoKAZ) is “did not exhibit a rapid decay”. Moreover, in series [1] (relative to coelenterazine = 1.0, 1 μg substrate, 50 mM Tris-HCl (pH 7.6)-10 mM EDTA, 60 seconds), the “Relative maximum luminescence intensity (Imax)” value is on record as 10.3. Further, the “Relative amount of integrated luminescence intensity (1 min.)” value in series [1] (relative to coelenterazine = 1.0, integrated for 60 seconds) turned out to be 9.7. Besides, the entries for the “Residual Ratio of Coelenterazine Analog (%)” value in series [2] (incubation time at 37° C. 0 hour) and in series [2] (incubation time at 37° C. 22 hours) were 100% and 38%, respectively.

Source of the values: patent publication US9567623B2, “Coelenterazine analogs” (JNC CORPORATION, priority 2013, dated 2017).
